target: Serine/threonine-protein kinase PLK1 (Homo sapiens, UniProt P53350); experiment: PLK1 polo-box domain peptide-binding inhibitors, SAR follow-up, biochemical, fluorescence polarization, synthesized analogs, concentration response (AID 1057)
Sequence (P53350 whole entry, the tested form may be a part): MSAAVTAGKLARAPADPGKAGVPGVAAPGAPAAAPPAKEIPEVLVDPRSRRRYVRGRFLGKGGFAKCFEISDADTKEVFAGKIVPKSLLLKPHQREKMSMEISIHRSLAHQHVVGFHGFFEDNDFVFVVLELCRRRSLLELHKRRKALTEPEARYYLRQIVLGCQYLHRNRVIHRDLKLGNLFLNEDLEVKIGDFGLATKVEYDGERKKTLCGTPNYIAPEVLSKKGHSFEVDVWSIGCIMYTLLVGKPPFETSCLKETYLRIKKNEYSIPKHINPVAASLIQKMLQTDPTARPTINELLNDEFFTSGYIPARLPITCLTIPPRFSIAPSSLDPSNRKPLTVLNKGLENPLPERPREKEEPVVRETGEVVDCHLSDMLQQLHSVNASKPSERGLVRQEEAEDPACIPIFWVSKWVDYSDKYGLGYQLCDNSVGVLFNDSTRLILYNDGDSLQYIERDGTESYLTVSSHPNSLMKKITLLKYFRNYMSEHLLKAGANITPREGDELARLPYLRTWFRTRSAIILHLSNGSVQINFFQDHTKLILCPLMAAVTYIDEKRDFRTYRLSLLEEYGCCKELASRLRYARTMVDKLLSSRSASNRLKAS

For O=C(Nc1ccccc1)c1c(O)[nH]c(=S)[nH]c1=O, which IC50 is on record?
Its IC50 is over 50 µM.

Which IC50 does the source give for CCOC(=O)c1cccc(NC(=O)c2c(N)n(C)c(=O)[nH]c2=O)c1 [UPDDI-00398617] here?
Its IC50 is over 50 µM.

With CCOC(=O)c1ccc(NC(=O)c2c(NCc3ccccc3)[nH]c(=O)[nH]c2=O)cc1 [UPDDI-00398618] as the compound, how does the IC50 read?
The IC50 was over 50 µM.

With CCOC(=O)c1ccc(NS(=O)(=O)c2c(N)n(C)c(=O)n(C)c2=O)cc1 [4-[(4-amino-1,3-dimethyl-2,6-dioxo-5-pyrimidinyl)sulfonylamino]benzoic acid ethyl ester] as the compound, how does the IC50 read?
The IC50 was over 50 µM.

CCOC(=O)c1ccccc1NC(=O)c1c(N)n(C)c(=O)[nH]c1=O [ethyl 2-[[6-azanyl-1-methyl-2,4-bis(oxidanylidene)pyrimidin-5-yl]carbonylamino]benzoate] was tested. Which IC50 did it give?
Its IC50 is over 50 µM.

CCOc1ccc(NC(=O)c2ccc(F)cc2F)cc1 [2,4-difluoro-N-p-phenetyl-benzamide] was tested. Which IC50 did it give?
Its IC50 is over 50 µM.

How did the IC50 turn out when CCOC(=O)c1ccc(NC(=O)c2ccc(F)cc2F)cc1 [4-[(2,4-difluorobenzoyl)amino]benzoic acid ethyl ester] was run?
The IC50 was over 50 µM.

Which IC50 does the source give for Cn1c(N)c(C(=O)Nc2ccccc2)c(=O)[nH]c1=O [UPDDI-00398616] here?
The IC50 was over 50 µM.

For O=C(Nc1ccccc1)c1c(O)[nH]c(=O)[nH]c1=O, which IC50 is on record?
Its IC50 is over 50 µM.

With CCOC(=O)c1ccc(NC(=O)c2c(N)n(C)c(=O)n(C)c2=O)cc1 [4-[(4-amino-2,6-diketo-1,3-dimethyl-pyrimidine-5-carbonyl)amino]benzoic acid ethyl ester] as the compound, how does the IC50 read?
The IC50 was over 50 µM.

How did the IC50 turn out when Cc1cccc(NNC=C2C(=O)NC(=S)NC2=O)c1 [5-[[2-(3-methylphenyl)hydrazinyl]methylidene]-2-sulfanylidene-1,3-diazinane-4,6-dione] was run?
Its IC50 is over 50 µM.

Which IC50 does the source give for CCOC(=O)CCCCCNC(=O)c1ccc(F)cc1F [6-[(2,4-difluorobenzoyl)amino]hexanoic acid ethyl ester] here?
Its IC50 is over 50 µM.

With CCCCOC(=O)c1ccc(NC(=O)c2c(N)n(C)c(=O)[nH]c2=O)cc1 [4-[[(6-amino-1-methyl-2,4-dioxo-5-pyrimidinyl)-oxomethyl]amino]benzoic acid butyl ester] as the compound, how does the IC50 read?
Its IC50 is over 50 µM.

For CCOC(=O)c1ccccc1NC(=O)c1c(O)[nH]c(=S)[nH]c1=O, which IC50 is on record?
The IC50 was over 50 µM.

With Cc1ccc(NC(=O)c2ccc(F)cc2F)cc1 [2,4-bis(fluoranyl)-N-(4-methylphenyl)benzamide] as the compound, how does the IC50 read?
Its IC50 is over 50 µM.

With CCOC(=O)c1cccc(NC(=O)c2c(O)[nH]c(=O)[nH]c2=O)c1 [3-[[(6-hydroxy-2,4-dioxo-1H-pyrimidin-5-yl)-oxomethyl]amino]benzoic acid ethyl ester] as the compound, how does the IC50 read?
Its IC50 is over 50 µM.

For CCOC(=O)c1cccc(NC(=O)c2ccc(F)cc2F)c1 [3-[(2,4-difluorobenzoyl)amino]benzoic acid ethyl ester], which IC50 is on record?
Its IC50 is over 50 µM.

For CCOc1ccc(NC(=O)c2c(O)[nH]c(=O)[nH]c2=O)cc1 [N-(4-ethoxyphenyl)-6-hydroxy-2,4-dioxo-1H-pyrimidine-5-carboxamide], which IC50 is on record?
Its IC50 is over 50 µM.

How did the IC50 turn out when CCOc1ccc(NC(=O)c2c(N)n(C)c(=O)[nH]c2=O)cc1 was run?
Its IC50 is over 50 µM.

With CCOC(=O)c1ccccc1NC(=O)c1c(O)[nH]c(=O)[nH]c1=O as the compound, how does the IC50 read?
The IC50 was over 50 µM.

With CCOC(=O)c1ccc(NC(=O)c2c(N)n(C)c(=O)[nH]c2=O)cc1 [UPDDI-00294856] as the compound, how does the IC50 read?
Its IC50 is over 50 µM.

How did the IC50 turn out when CCOC(=O)c1ccc(NC(=O)c2c(N)n(Cc3ccccc3)c(=O)[nH]c2=O)cc1 [ethyl 4-[(6-amino-1-benzyl-2,4-dioxopyrimidine-5-carbonyl)amino]benzoate] was run?
Its IC50 is over 50 µM.

For CCOC(=O)CCCCCNC(=O)C1C(=O)NC(=O)NC1=O [6-[[hydroxy-(2,4,6-triketohexahydropyrimidin-5-ylidene)methyl]amino]hexanoic acid ethyl ester], which IC50 is on record?
Its IC50 is over 50 µM.

For O=C(Nc1ccccc1)c1ccc(F)cc1F [2,4-bis(fluoranyl)-N-phenyl-benzamide], which IC50 is on record?
The IC50 was over 50 µM.

With CCCCOC(=O)c1ccc(NC(=O)c2ccc(F)cc2F)cc1 [4-[(2,4-difluorobenzoyl)amino]benzoic acid butyl ester] as the compound, how does the IC50 read?
Its IC50 is over 50 µM.

Which IC50 does the source give for CCOC(=O)c1ccc(NC(=O)c2c(O)[nH]c(=O)[nH]c2=O)cc1 here?
The IC50 was over 50 µM.

How did the IC50 turn out when CCOC(=O)c1cccc(NC(=O)c2c(NCc3ccccc3)[nH]c(=O)[nH]c2=O)c1 [ethyl 3-[[2,4-bis(oxidanylidene)-6-[(phenylmethyl)amino]-1H-pyrimidin-5-yl]carbonylamino]benzoate] was run?
The IC50 was over 50 µM.

Cn1c(N)c(S(=O)(=O)NCc2ccccc2)c(=O)n(C)c1=O [4-amino-1,3-dimethyl-2,6-dioxo-N-(phenylmethyl)-5-pyrimidinesulfonamide] was tested. Which IC50 did it give?
The IC50 was over 50 µM.

With CC(NNC(=O)c1ccncc1)=C1C(=O)NC(=O)NC1=O as the compound, how does the IC50 read?
Its IC50 is over 50 µM.

How did the IC50 turn out when CCCCOC(=O)c1ccc(NC(=O)c2c(O)[nH]c(=O)[nH]c2=O)cc1 [4-[[(6-hydroxy-2,4-dioxo-1H-pyrimidin-5-yl)-oxomethyl]amino]benzoic acid butyl ester] was run?
Its IC50 is over 50 µM.

CCOC(=O)c1ccccc1NC(=O)c1ccc(F)cc1F [2-[(2,4-difluorobenzoyl)amino]benzoic acid ethyl ester] was tested. Which IC50 did it give?
The IC50 was over 50 µM.

Source: BindingDB's records for doi:10.7270/Q280511V (University of Pittsburgh, 2008)
